Measured values as given in PMC11397024, “Strategic Fluorination to Achieve a Potent, Selective, Metabolically Stable, and Orally Bioavailable Inhibitor of CSNK2” (Molecules, 2024).
pIC50: −log10 of the molar value. Converted amounts (≈) assume the structure as drawn.

Columns and labels:
[1] = Kinetic solubility; type: physicochemical; details: phosphate buffered saline, 22 °C, aqueous buffer, kinetic from dmso stock; PBS pH 7.4 from DMSO stock
Protocol: Phosphate buffered saline (50 mL, PBS, Fisher (Pittsburgh, PA, USA), pH 7.4) was added to HPLC-grade H2O (450 mL) for a total dilution factor of 1:10 and a final PBS concentration of 1×. […] The final DMSO concentration was 2.0%, and the maximum theoretical compound concentration was 200 μM. The filter plate was heat-sealed for a 24 h incubation. The sample was placed on a rotary shaker (200 rpm) for 24 h at ambient temperature (21.6–22.8 °C) and then vacuum-filtered. All filtrates were injected into a chemiluminescent nitrogen detector for quantification. The equimolar nitrogen response of the detector was calibrated using standards that span the dynamic range of the instrument from 0.08 to 4500 μg/mL nitrogen. The filtrates were quantified with respect to this calibration curve. The calculated solubility values were corrected for background nitrogen present in DMSO and the media used to prepare the samples.

[2] = molecular target: T1, PHKG1 (Homo sapiens, UniProt Q16816); test: NanoBRET dose-response PHKG1; type: cell-based; details: highest concentration tested 30 μM
T1 construct: purchased Promega (NanoBRET Target Engagement K192 Kinase Selectivity System)
T1 sequence (Q16816 whole entry): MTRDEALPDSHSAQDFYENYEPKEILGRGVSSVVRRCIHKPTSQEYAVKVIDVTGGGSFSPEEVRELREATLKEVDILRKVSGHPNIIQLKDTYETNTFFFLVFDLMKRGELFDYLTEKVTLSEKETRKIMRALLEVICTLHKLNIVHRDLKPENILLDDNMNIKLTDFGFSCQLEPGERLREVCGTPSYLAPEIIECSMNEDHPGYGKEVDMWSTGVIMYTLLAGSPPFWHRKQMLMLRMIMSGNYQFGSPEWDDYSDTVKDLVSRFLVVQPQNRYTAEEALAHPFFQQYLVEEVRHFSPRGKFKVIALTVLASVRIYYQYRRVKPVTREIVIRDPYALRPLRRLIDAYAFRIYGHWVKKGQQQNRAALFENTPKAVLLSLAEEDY

[3] = Multi-dose PK study; type: in vivo; details: Balb/c mice, 30 mg/kg p.o. every 12 h; total plasma concentration factored by fu
Protocol: In the multi-dose PK study, three male Balb/c mice (6–8 weeks old, 20–30 g) were dosed via oral (p.o.) administration of four doses of compound 2 (30 mg/kg) as a 10 mL/kg volume of 3 mg/mL solution in DMSO/PEG-400/Water (v/v/v, 10:30:60) every 12 h. At 2, 6, 12, 14, 24, 26, 36, 38, and 48 h after the first dose, 0.025 mL of blood was collected from the dorsal metatarsal vein at each time point. Each blood sample was transferred into a plastic microcentrifuge tube containing EDTA-K2 anticoagulant and mixed well with the anticoagulant, then placed on ice prior to centrifugation at 4000× g for 5 min at 4 °C to obtain plasma. The samples were stored in a freezer at −75 ± 15 °C prior to analysis. […] The final compound concentration was calculated by multiplying the detected concentration by a dilution factor of four.
Concentrations of the test compound in the plasma samples were determined using a Prominence LC-MS/MS system with a DGU-20A5R(C) degasser, LC-30AD pump, CBM-20A system controller, SIL-20AC HT autosampler; Rack changer II, HALO 90A ES-CN (2.7 μm, 2.1 × 50 mm) column, and AB Sciex Triple Quan 5500 LC/MS/MS instrument. […] After centrifugation at 4 °C and 4000 rpm for 15 min, the supernatant was diluted with ultrapure water at a ratio of 1:2 (v/v, 1:2), then 20 µL of diluted supernatant was injected into the LC/MS/MS system for quantitative analysis. […]

[4] = molecular target: T2, CLK4 (Homo sapiens, UniProt Q9HAZ1); test: NanoBRET dose-response CLK4; type: cell-based; details: highest concentration tested 30 μM
T2 construct: expressed in transfected cells; host or cells: HEK293
T2 sequence (Q9HAZ1 whole entry): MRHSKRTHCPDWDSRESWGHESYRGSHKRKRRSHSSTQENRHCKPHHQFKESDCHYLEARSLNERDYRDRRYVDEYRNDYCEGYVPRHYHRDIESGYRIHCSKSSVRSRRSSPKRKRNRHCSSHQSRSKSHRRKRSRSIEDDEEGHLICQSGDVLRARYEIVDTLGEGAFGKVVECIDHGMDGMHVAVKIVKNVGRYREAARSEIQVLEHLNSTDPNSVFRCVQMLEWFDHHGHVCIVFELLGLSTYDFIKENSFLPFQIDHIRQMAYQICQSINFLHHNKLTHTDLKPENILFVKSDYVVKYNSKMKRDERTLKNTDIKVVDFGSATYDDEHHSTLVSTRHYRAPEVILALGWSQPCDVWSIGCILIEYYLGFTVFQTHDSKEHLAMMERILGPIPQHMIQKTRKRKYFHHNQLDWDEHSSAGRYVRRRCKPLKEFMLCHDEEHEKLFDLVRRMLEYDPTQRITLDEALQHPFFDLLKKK

[5] = Snapshot (5 h) PK study with/without EA and 1-ABT; type: in vivo; details: male, CD-1, mouse, plasma, ip, 10 mg/kg, CD-1 mice, 10 mg/kg i.p.
Protocol: In the 5 h PK study investigating the effect of co-dosing EA and 1-ABT, two cohorts of male CD-1 mice (6–8 weeks old, 20–30 g) were dosed via intraperitoneal (i.p.) administration of compound 2 (10 mg/kg) as a 10 mL/kg volume of a 1.0 mg/mL solution in DMSO/PEG-400/saline (v/v/v, 10:30:60). EA (30 mg/kg) was administered i.p. as a 1.0 mL/kg volume of a 30 mg/mL solution in NMP/PEG-400/water (v/v/v, 10:60:30) as a 6 h pretreatment and again at the time of dosing with compound 2. 1-ABT (100 mg/kg) was administered p.o. as a 10 mL/kg volume of a 10 mg/mL solution in saline as a 2 h pretreatment. No co-treatment with EA or 1-ABT was applied to the first cohort. Co-treatment with EA (30 mg/kg) and 1-ABT (100 mg/kg) was applied in the second cohort. Two mice were dosed in each cohort. The mice had free access to water and food. Blood (0.03 mL) was collected from the dorsal metatarsal vein at 0.5, 1, 3, and 5 h time points. Each blood sample was transferred into a plastic microcentrifuge tube containing EDTA-K2 anticoagulant. Blood samples were centrifuged at 4000× g for 5 min at 4 °C to obtain plasma. The samples were stored in a freezer at −75 ± 15 °C prior to analysis. Plasma samples from the two mice from each cohort and each time point were pooled together for analysis. At 5 h post dose administration, the mice were anesthetized using increasing concentrations of CO2, and lung samples were collected. Lung samples were quickly frozen in an ice box and stored at −75 ± 15 °C. Prior to analysis, all lung samples were weighed and homogenized with phosphate-buffered saline (PBS) in a lung weight (g)/buffer volume (mL) ratio of 1:3. The final compound concentration was calculated by multiplying the detected concentration by a dilution factor of four.
Concentrations of the test compound in the plasma samples were determined using a Prominence LC-MS/MS system with a DGU-20A5R(C) degasser, LC-30AD pump, CBM-20A system controller, SIL-20AC HT autosampler; Rack changer II, HALO 90A ES-CN (2.7 μm, 2.1 × 50 mm) column, and AB Sciex Triple Quan 5500 LC/MS/MS instrument. The mobile phase was 5–95% MeCN in H2O, with 0.1% formic acid. The desired serial concentrations of working solutions were achieved by diluting the stock solution of the analyte with 50% acetonitrile in water. A series of 10 µL working solutions […] were added to 10 μL of blank plasma or lung homogenate to achieve calibration standards of 0.5, 1, 2, 5, 10, 50, 100, 500, 1000 ng/mL in a total volume of 20 μL. A total of 5 quality control samples at 1 ng/mL, 2 ng/mL, 5 ng/mL, 100 ng/mL, and 800 ng/mL were prepared independently of those used for the calibration curves in the same manner. A 20 μL standard, 20 μL QC sample, and 20 μL of an unknown sample (10 µL plasma or lung homogenate with 10 µL blank solution) were added to 200 μL of acetonitrile containing internal standard mixture for precipitating protein. Then, the samples were vortexed for 30 s. After centrifugation at 4 °C and 4000 rpm for 15 min, the supernatant was diluted with ultrapure water at a ratio of 1:2 (v/v, 1:2), then 20 µL of diluted supernatant was injected into the LC/MS/MS system for quantitative analysis. PK parameters were calculated from the mean plasma concentration versus time using a noncompartmental model in WinNonlin Phoenix version 8.3.

[6] = molecular target: T3, CLK1 (Homo sapiens, UniProt P49759); test: NanoBRET dose-response CLK1; type: cell-based
T3 construct: purchased Promega (NanoBRET Target Engagement K192 Kinase Selectivity System)
T3 sequence (P49759 whole entry): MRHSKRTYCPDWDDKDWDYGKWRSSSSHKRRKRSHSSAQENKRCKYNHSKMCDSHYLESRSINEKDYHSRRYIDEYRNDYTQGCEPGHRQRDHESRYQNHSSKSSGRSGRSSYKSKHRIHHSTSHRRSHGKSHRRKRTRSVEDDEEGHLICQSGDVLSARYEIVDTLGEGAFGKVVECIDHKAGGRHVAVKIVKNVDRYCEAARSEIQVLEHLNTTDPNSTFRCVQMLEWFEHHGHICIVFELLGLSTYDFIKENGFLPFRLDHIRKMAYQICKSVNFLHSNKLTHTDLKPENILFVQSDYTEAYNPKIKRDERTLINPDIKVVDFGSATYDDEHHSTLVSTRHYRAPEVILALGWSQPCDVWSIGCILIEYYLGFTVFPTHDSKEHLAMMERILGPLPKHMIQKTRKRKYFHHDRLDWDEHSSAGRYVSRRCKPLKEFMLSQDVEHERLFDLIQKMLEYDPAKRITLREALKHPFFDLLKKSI

[7] = tested on: SARS-CoV-2; test: SARS-CoV-2 assay in A549-ACE2 cells; type: cell-based
[8] = with both EA (30 mg/kg) and 1-ABT (100 mg/kg)

With `CCC(=O)Nc1cc(Nc2cc(NC3CC3)n3ncc(C#N)c3n2)c(F)cc1N1CCC[C@H](NC)C1` [Compound 2, (S)-N-(5-((3-cyano-7-(cyclopropylamino)pyrazolo[1,5-a]pyrimidin-5-yl)amino)-4-fluoro-2-(3-(methylamino)piperidin-1-yl)phenyl)propionamide] the solubility kinetic at 24 h [1] was 59 µg/mL (≈ 120 µM), the pIC50 [2] was less than 4.52 and the “free plasma Cpeak concentration” value [3] was 120 to 190 nM. It also gave a pIC50 [4] of less than 4.52, an AUC(0-t) ([5]; no co-treatment) of 7.77 µM·h and a Cmax ([5]; no co-treatment) of 3.19 µM. The half-life ([5]; no co-treatment) was 2.5 h, the AUC(0-t) [5, 8] was 10.1 µM·h and the Cmax [5, 8] was 3.15 µM. For the same compound, the half-life [5, 8] was 3.7 h, the pIC50 [6] was 4.54 and the IC90 ([7]; Severe acute respiratory syndrome coronavirus 2) was 2.2 µM. The IC50 ([7]; Severe acute respiratory syndrome coronavirus 2, triplicate, read-out: SARS-CoV-2 pIC50 (converted)) was 0.316 µM.
